In general, IC50 refers to the concentration that inhibits the measured activity by half.

This test addresses T1, P2X7 receptor (Homo sapiens, UniProt Q99572).
T1 construct: stably expressing the full length P2X7 receptor; expressed in transfected cells
T1 sequence (Q99572 1-595): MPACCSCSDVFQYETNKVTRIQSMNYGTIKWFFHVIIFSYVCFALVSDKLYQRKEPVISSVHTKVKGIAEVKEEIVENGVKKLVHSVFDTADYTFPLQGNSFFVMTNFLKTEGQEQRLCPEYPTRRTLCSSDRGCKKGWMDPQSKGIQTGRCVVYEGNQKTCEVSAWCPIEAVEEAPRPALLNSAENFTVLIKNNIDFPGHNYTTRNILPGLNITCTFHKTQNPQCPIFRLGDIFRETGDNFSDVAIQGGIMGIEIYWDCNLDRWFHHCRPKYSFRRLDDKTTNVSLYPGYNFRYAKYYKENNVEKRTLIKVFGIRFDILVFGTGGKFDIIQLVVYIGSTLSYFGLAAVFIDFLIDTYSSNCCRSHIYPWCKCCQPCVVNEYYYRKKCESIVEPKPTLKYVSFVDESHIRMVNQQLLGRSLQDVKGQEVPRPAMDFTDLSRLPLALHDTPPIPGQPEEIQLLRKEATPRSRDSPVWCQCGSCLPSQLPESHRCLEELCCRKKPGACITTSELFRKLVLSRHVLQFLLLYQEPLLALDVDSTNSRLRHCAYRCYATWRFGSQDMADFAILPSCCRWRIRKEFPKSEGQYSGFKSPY
The test is described as follows: Ca++ flux assay (FLIPR) in P2X7-HEK-293 cell line stably expressing the full length P2X7 receptor, Bz-ATP activation. The format is cell-based. Conditions: P2X7-HEK-293 cells; agonist Bz-ATP; fluorescence as total area over 90 seconds; read-out: P2X7 Ca Flux hu IC50. The procedure, abridged: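 HEK-293 cells stably expressing full-length P2X7 were loaded with Ca++-sensitive dye for 1 h, with compound added during loading. Cells were stimulated with Bz-ATP on FLIPR. Fluorescence was integrated as total area over 90 s, and IC50 was taken as 50% inhibition of the maximal Ca++ response.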
With `Cc1c(-n2ccn3c(SCc4ccccc4)nnc3c2=O)cccc1C(F)(F)F` [Compound 93, 3-(benzylthio)-7-(2-methyl-3-(trifluoromethyl)phenyl)-[1,2,4]triazolo[4,3-a]pyrazin-8(7H)-one], the IC50 stood at 38.2 nM.
To `Cc1nc(CSc2nnc3c(=O)n(-c4cccc(Cl)c4C)ccn23)cs1` [Compound 94, 7-(3-chloro-2-methylphenyl)-3((2-methylthiazol-4-yl)methylthio)-[1,2,4]triazolo[4,3-a]pyrazin-8(7H)-one] belongs 2560 nM; to `O=c1c2nnc(SCc3ccccc3)n2ccn1-c1cccc(Cl)c1Cl` [Compound 95, 3-(benzylthio)-7-(2,3-dichlorophenyl)-[1,2,4]triazolo[4,3-a]pyrazin-8(7H)-one], 110 nM.
With `Cc1c(Cl)cccc1-n1ccn2c(SCc3cccnc3)nnc2c1=O` [Compound 96, 7-(3-chloro-2-methylphenyl)-3-(pyridin-3-ylmethylthio)-[1,2,4]triazolo[4,3-a]pyrazin-8(7H)-one], the IC50 was determined as 4220 nM.
Consider `Cc1c(Cl)cccc1-n1ccn2c(SCc3ccc4ccccc4c3)nnc2c1=O` [Compound 97, 7-(3-chloro-2-methylphenyl)-3-(naphthalen-2-ylmethylthio)-[1,2,4]triazolo[4,3-a]pyrazin-8(7H)-one], for which the half-inhibitory concentration (IC50) was 2310 nM.
With `Cc1c(Cl)cccc1-n1ccn2c(SCc3ccccn3)nnc2c1=O` [Compound 98, 7-(3-chloro-2-methylphenyl)-3-(pyridin-2-ylmethylthio)-[1,2,4]thazolo[4,3-a]pyrazin-8(7H)-one], the IC50 amounted to 2340 nM.
For the compound `Cc1c(Br)cccc1-n1ccn2c(SCc3ccccc3)nnc2c1=O` [Compound 99, 3-(benzylthio)-7-(3-bromo-2-methylphenyl)-[1,2,4]-triazolo[4,3-a]pyrazin-8(7H)-one], the IC50 stood at 250 nM.
As for `O=c1c2nnc(SCc3ccccc3)n2ccn1-c1ccc(Cl)c(Cl)c1` [Compound 100, 3-(benzylthio)-7-(3,4-dichlorophenyl)-[1,2,4]triazolo[4,3-a]pyrazin-8(7H)-one], the IC50 is 3920 nM.
Consider `Cc1c(Cl)cccc1-n1ccn2c(SCc3cc(Cl)cc(Cl)c3)nnc2c1=O` [Compound 101, 7-(3-chloro-2-methylphenyl)-3-(3,5-dichlorobenzylthio)-[1,2,4]triazolo[4,3-a]pyrazin-8(7H)-one], for which the IC50 is 167 nM.
With `Cc1c(Cl)cccc1-n1ccn2c(SCc3cc(F)c(F)c(F)c3)nnc2c1=O` [Compound 102, 7-(3-chloro-2-methylphenyl)-3-(3,4,5-trifluorobenzylthio)-[1,2,4]triazolo[4,3-a]pyrazin-8(7H)-one], the IC50 stood at 925 nM.
The same measure for `Cc1c(Cl)cccc1-n1ccn2c(SCc3ccc(Cl)c(Cl)c3)nnc2c1=O` [Compound 103, 7-(3-chloro-2-methylphenyl)-3-(3,4-dichlorobenzylthio)-[1,2,4]triazolo[4,3-a]pyrazin-8(7H)-one]: 1300 nM; for `Cc1c(Cl)cccc1-n1ccn2c(SCc3ccc(C(C)C)cc3)nnc2c1=O` [Compound 104, 7-(3-chloro-2-methylphenyl)-3-(4-isopropylbenzylthio)-[1,2,4]triazolo[4,3-a]pyrazin-8(7H)-one]: 2740 nM; for `Cc1c(Cl)cccc1-n1ccn2c(SCc3c(F)cccc3F)nnc2c1=O` [Compound 105, 7-(3-chloro-2-methylphenyl)-3-(2,6-difluorobenzylthio)-[1,2,4]triazolo[4,3-a]pyrazin-8(7H)-one]: 389 nM.
To `Cc1c(Cl)cccc1-n1ccn2c(SCc3c(F)c(F)c(F)c(F)c3F)nnc2c1=O` [Compound 106, 7-(3-chloro-2-methylphenyl)-3-(perfluorobenzylthio)-[1,2,4]triazolo[4,3-a]pyrazin-8(7H)-one] belongs 387 nM; to `Cc1c(Cl)cccc1-n1ccn2c(SCC(=O)OC(C)(C)C)nnc2c1=O` [Compound 107, tert-butyl 2-(7-(3-chloro-2-methylphenyl)-8-oxo-7,8-dihydro-[1,2,4]triazolo[4,3-a]pyrazin-3-ylthio)acetate], 1820 nM.
For the compound `COc1ccccc1C(=O)CSc1nnc2c(=O)n(-c3cccc(Cl)c3C)ccn12` [Compound 108, 7-(3-chloro-2-methylphenyl)-3-(2-(2-methoxyphenyl)-2-oxoethylthio)-[1,2,4]triazolo[4,3-a]pyrazin-8(7H)-one], the IC50 stood at 507 nM.
In the case of `Cc1c(Cl)cccc1-n1ccn2c(SCC(=O)c3ccccc3C(F)(F)F)nnc2c1=O` [Compound 109, 7-(3-chloro-2-methylphenyl)-3-(2-oxo-2-(2-(trifluoromethyl)phenyl)ethylthio)-[1,2,4]-triazolo[4,3-a]pyrazin-8(7H)-one], the IC50 was found to be 448 nM.
In the case of `COc1ccccc1CSc1nnc2c(=O)n(-c3cccc(Cl)c3C)ccn12` [Compound 110, 7-(3-chloro-2-methylphenyl)-3-(2-methoxybenzylthio)-[1,2,4]triazolo[4,3-a]pyrazin-8(7H)-one], the IC50 came to 544 nM.
On to `Cc1c(Cl)cccc1-n1ccn2c(SCc3ccccc3C(F)(F)F)nnc2c1=O` [Compound 111, 7-(3-chloro-2-methylphenyl)-3-(2-(trifluoromethyl)benzylthio)-[1,2,4]triazolo[4,3-a]pyrazin-8(7H)-one], for which the concentration for half-maximal inhibition (IC50) came out at 515 nM.
The same measure for `Cc1c(Cl)cccc1-n1ccn2c(SCCc3ccccc3)nnc2c1=O` [Compound 112, 7-(3-chloro-2-methylphenyl)-3-(phenethylthio)-[1,2,4]triazolo[4,3-a]pyrazin-8(7H)-one]: 660 nM; for `COc1ccc(CSc2nnc3c(=O)n(-c4cccc(Cl)c4C)ccn23)cc1` [Compound 113, 7-(3-chloro-2-methylphenyl)-3-(4-methoxybenzylthio)-[1,2,4]triazolo[4,3-a]pyrazin-8(7H)-one]: 5650 nM.
Take `Cc1c(Cl)cccc1-n1ccn2c(SCc3cc(F)cc(F)c3)nnc2c1=O` [Compound 114, 7-(3-chloro-2-methylphenyl)-3-(3,5-difluorobenzylthio)-[1,2,4]triazolo[4,3-a]pyrazin-8(7H)-one]: the IC50 is 697 nM.
With `Cc1c(Cl)cccc1-n1ccn2c(SCc3ccc(F)c(F)c3)nnc2c1=O` [Compound 115, 7-(3-chloro-2-methylphenyl)-3-(3,4-difluorobenzylthio)-[1,2,4]triazolo[4,3-a]pyrazin-8(7H)-one], the IC50 was 893 nM.
On to `Cc1c(-n2ccn3c(S(=O)(=O)Cc4ccccc4)nnc3c2=O)cccc1C(F)(F)F` [Compound 116], for which the IC50 turned out to be 29 nM.
On to `Cc1c(-n2ccn3c([S+]([O-])Cc4ccccc4)nnc3c2=O)cccc1C(F)(F)F` (centres unmarked) [Compound 117, 3-(benzylsulfinyl)-7-(2-methyl-3-(trifluoromethyl)phenyl)-[1,2,4]triazolo[4,3-a]pyrazin-8(7H)-one], for which the IC50 amounted to 76.5 nM.
For the compound `Cc1c(-n2ccn3c(S(=O)(=O)Cc4ccccc4-c4ccc(Cl)cc4)nnc3c2=O)cccc1C(F)(F)F` [Compound 118, 3-((4′-chlorobiphenyl-2-yl)methylsulfonyl)-7-(2-methyl-3-(trifluoromethyl)phenyl)-[1,2,4]triazolo[4,3-a]pyrazin-8(7H)-one], the IC50 came out at 6.9 nM.
On to `O=c1c2nnc(S(=O)(=O)Cc3ccccc3Cl)n2ccn1-c1cccc(C(F)(F)F)c1Cl` [Compound 119, 7-(2-chloro-3-(trifluoromethyl)phenyl)-3-(2-chlorobenzylsulfonyl)-[1,2,4]triazolo[4,3-a]pyrazin-8(7H)-one], for which the IC50 is 11 nM.
Consider `Cc1c(-n2ccn3c(S(=O)(=O)Cc4ccccc4F)nnc3c2=O)cccc1C(F)(F)F` [Compound 120, 3-(2-fluorobenzylsulfonyl)-7-(2-methyl-3-(trifluoromethyl)phenyl)-[1,2,4]triazolo[4,3-a]pyrazin-8(7H)-one], for which the IC50 is 11.8 nM.
As for `Cc1c(-n2ccn3c(S(=O)(=O)Cc4ccccc4Cl)nnc3c2=O)cccc1C(F)(F)F` [Compound 121, 3-(2-chlorobenzylsulfonyl)-7-(2-methyl-3-(trifluoromethyl)phenyl)-[1,2,4]triazolo[4,3-a]pyrazin-8(7H)-one], the IC50 amounted to 11.9 nM.
The same measure for `Cc1c(-n2ccn3c(S(=O)(=O)Cc4cccs4)nnc3c2=O)cccc1C(F)(F)F` [Compound 122, 7-(2-methyl-3-(trifluoromethyl)phenyl)-3-(thiophen-2-ylmethylsulfonyl)-[1,2,4]triazolo[4,3-a]pyrazin-8(7H)-one]: 12.3 nM.
On to `Cc1c(-n2ccn3c(S(=O)(=O)Cc4ccsc4)nnc3c2=O)cccc1C(F)(F)F` [Compound 123, 7-(2-methyl-3-(trifluoromethyl)phenyl)-3-(thiophen-3-ylmethylsulfonyl)-[1,2,4]triazolo[4,3-a]pyrazin-8(7H)-one], for which the concentration for half-maximal inhibition (IC50) amounted to 12.4 nM.
Take `Cc1c(-n2ccn3c(S(=O)(=O)Cc4cccc(F)c4Cl)nnc3c2=O)cccc1C(F)(F)F` [Compound 124, 3-(2-chloro-3-fluorobenzylsulfonyl)-7-(2-methyl-3-(trifluoromethyl)phenyl)-[1,2,4]triazolo[4,3-a]pyrazin-8(7H)-one]: the IC50 came to 14.6 nM.

The record behind these values is patent US20130196986A1 (priority 2010, published 2013).
